Experimental data: patent publication EP4772514A1, “MACROCYCLIC COMPOUNDS, PREPARATION METHOD THEREFOR, AND USE THEREOF” (Genfleet Therapeutics (Shanghai) Inc., priority 2023, dated 2025)

System: p-ERK
Test: Cell p-ERK assay (HTRF, Advance ERK phospho-T202/Y204 kit) in NCI-H441 cells
Format: cell-based
Conditions: Homo sapiens, NCI-H441, 3 h, NCI-H441, human non-small cell lung cancer cell strain, KRAS G12V mutation; 3 h compound incubation
Description: AsPC-1 cells were purchased from ATCC, Cat. No. CRL-1682; NCI-H441 cells were purchased from ATCC, Cat. No. HTB-174; RPMI-1640 medium was purchased from Gibco, Cat. No. 11875-093; FBS was purchased from Gibco, Cat. No. 10099-141C; penicillin/streptomycin double-antibiotic solution (PS) was purchased from Gibco, Cat. No. 15140-122; trypsin (containing EDTA) was purchased from Gibco, Cat. No. 25200-072; DMSO was purchased from VWRAMRESCO, Cat. No. 0231-500ML; 96-well cell culture plates were purchased from Corning, Cat. No. 3599; white-bottomed, opaque 96-well plates were purchased from Cisbio, Cat. No. 66PL96025; Advance ERK phospho-T202/Y204 kit was purchased from Cisbio, Cat. No. 64AERPEH; cell counter was purchased from CHEMOMETEC, model: NC-200; microplate reader was purchased from PerkinElmer, model: EnVision.
AsPC-1, a human pancreatic cancer cell strain endogenously containing a KRAS^G12D mutation, was cultured in a complete medium containing RPMI-1640 + 10% FBS + 1% PS. NCI-H441, a human non-small cell lung cancer cell strain endogenously containing a KRAS^G12V mutation, was cultured in a complete medium containing RPMI-1640 + 10% FBS + 1% PS.
The cells were digested with trypsin (containing EDTA), collected in their corresponding complete media, and counted. The density of the cell suspensions was adjusted with their corresponding complete media, and AsPC-1 cells (10000 cells/well) or NCI-H441 cells (20000 cells/well) were seeded into a 96-well cell culture plate, with the volume of the medium in each well being 80 µL. The cell culture plate was incubated in an incubator at 37 °C with 5% CO2 overnight. A series of 3.16-fold gradient dilutions of a 1000× compound stock solution were prepared with DMSO, and then diluted 200-fold with the complete medium described above to give 5× compound stock solutions. On the day after cell seeding, 20 µL of the 5× compound stock solution was added to each cell culture well. As a result, the final concentration of the compound in the cell culture well became 1×, and the DMSO content in the well was 0.1%. In addition to the compound-treated wells described above, cell-containing DMSO control wells were also set. A complete medium containing 0.5% DMSO was added at 20 µL/well. After the mixture was well mixed, the culture plate was incubated in the incubator at 37 °C with 5% CO2 for another 3 h. The medium was then removed from the culture wells, and 50 µL of cell lysis buffer (from Advance ERK phospho-T202/Y204 kit) was added to each well. The mixture was well mixed, incubated for 30 min, and then transferred to a white-bottomed, opaque 96-well assay plate at 16 µL/well, and separately, 16 µL of cell lysis buffer was added to additional wells (serving as blank wells) in the assay plate. After the transfer was completed, 4 µL of p-ERK HTRF antibody mixture (from Advance ERK phospho-T202/Y204 kit) was added to each well of the assay plate, followed by a 4-hour incubation. The HTRF signal values (RLU) were then measured using a microplate reader, and the inhibition rate of the compound against p-ERK levels was calculated as follows: IR(%) = (RLUDMSO - RLUcompound)/(RLUDMSO - RLUblank) × 100%, where RLUDMSO is the average HTRF signal value from the DMSO control well samples, RLU is the average HTRF signal value from the blank well samples, and RLUcompound is the HTRF signal value from the compound-treated well samples. Using an XLfit software, the IR(%) values were plotted against the logarithm of the compound concentrations, and the dose-response curves were fitted using the four-parameter method to calculate the IC50 values.

IC50 [nM]	SMILES
2.05	CCn1nc2c(c1-c1cc(C#CCN3CCS(=O)(=O)CC3)cnc1[C@H](C)OC)CC(C)(C)COC(=O)[C@@H]1CCCN(N1)C(=O)[C@@H](NC(=O)[C@H](C(C)C)N(C)c1ccc(F)cc1)Cc1nc(cs1)/C=C/2 (atropisomer, axis not shown; (Ra)) [Compound Z124, (2S)-N-((4^2Z,8^3S,2E,6S)-(Ra)-1^5-(5-(3-(1,1-dioxidomorpholinyl)prop-1-yn-1-yl)-2-((S)-1-methoxyethyl)pyridin-3-yl)-1^1-ethyl-12,12-dimethyl-7,9-dioxo-8^1,8^2,8^4,8^5,8^6-hexahydro-1^1H-10-oxa-4(4,2)-thiazola-8(1,3)-pyridazina-1(3,4)-pyrrolacyclotridecaphan-2-en-6-yl)-2-[(4-fluorophenyl)(methyl)amino]-3-methylbutanamide]
513	CO[C@@H](C)c1ncc(C#CCN2CCS(=O)(=O)CC2)cc1-c1c2c(nn1C(C)C)/C=C/c1csc(n1)C[C@H](NC(=O)[C@H](C(C)C)N(C)C(=O)Cc1cccc3ccsc13)C(=O)N1CCC[C@H](N1)C(=O)OCC(C)(C)C2 (single isomer, unassigned) [Compound Z120]
104	CCn1nc2c(c1-c1cc(C#CCN3CCS(=O)(=O)CC3)cnc1[C@H](C)OC)CC(C)(C)COC(=O)[C@@H]1CCCN(N1)C(=O)[C@@H](NC(=O)[C@@H](Cc1ccccc1)C(C)C)Cc1nc(cs1)/C=C/2 (atropisomer, axis not shown; (Ra)) [Compound Z127, (2S)-2-benzyl-N-((4^2Z,8^3S,2E,6S)-(Ra)-1^5-(5-(3-(1,1-dioxidothiomorpholino)prop-1-yn-1-yl)-2-((S)-1-methoxyethyl)pyridin-3-yl)-1^1-ethyl-12,12-dimethyl-7,9-dioxo-8^1,8^2,8^3,8^4,8^5,8^6-hexahydro-1^1H-10-oxa-4(4,2)-thiazola-8(1,3)-pyridazina-1(3,4)-pyrrolacyclotridecaphan-2-en-6-yl)-3-methylbutanamide]
181	CCn1nc2c(c1-c1cc(C#CCN3CCS(=O)(=O)CC3)cnc1[C@H](C)OC)CC(C)(C)COC(=O)[C@@H]1CCCN(N1)C(=O)[C@@H](NC(=O)[C@H](C(C)C)N(C)c1ccncc1)Cc1nc(cs1)/C=C/2 (atropisomer, axis not shown; (Ra)) [Compound Z122, (2S)-N-((4^2Z,8^3S,2E,6S)-(Ra)-1^5-(5-(3-(1,1-dioxidothiomorpholino)prop-1-yn-1-yl)-2-((S)-1-methoxyethyl)pyridin-3-yl)-1^1-ethyl-12,12-dimethyl-7,9-dioxo-8^1,8^2,8^3,8^4,8^5,8^6-hexahydro-1^1H-10-oxa-4(4,2)-thiazola-8(1,3)-pyridazina-1(3,4)-pyrazolocyclotridec-2-en-6-yl)-3-methyl-2-(methyl(pyridin-4-yl)amino)butanamide]
4.63	CCn1nc2c(c1-c1cc(C#CCN3CCS(=O)(=O)CC3)cnc1[C@H](C)OC)CC(C)(C)COC(=O)[C@@H]1CCCN(N1)C(=O)[C@@H](NC(=O)[C@H](C(C)C)N(C)c1cccnc1)Cc1nc(cs1)/C=C/2 (atropisomer, axis not shown; (Ra)) [Compound Z123, (2S)-N-((4^2Z,8^3S,2E,6S)-(Ra)-1^5-(5-(3-(1,1-dioxidothiomorpholino)prop-1-yn-1-yl)-2-((S)-1-methoxyethyl)pyridin-3-yl)-1^1-ethyl-12,12-dimethyl-7,9-dioxo-8^1,8^2,8^3,8^4,8^5,8^6-hexahydro-1^1H-10-oxa-4(4,2)-thiazola-8(1,3)-pyridazina-1(3,4)-pyrazolocyclotridec-2-en-6-yl)-3-methyl-2-(methyl(pyridin-3-yl)amino)butanamide]
69.9	CO[C@@H](C)c1ncc(C#CCN2CCS(=O)(=O)CC2)cc1-c1c2c(nn1C(C)C)/C=C/c1csc(n1)C[C@H](NC(=O)[C@H](C(C)C)N(C)c1ccc(C)cc1)C(=O)N1CCC[C@H](N1)C(=O)OCC(C)(C)C2 (atropisomer, axis not shown; (Ra)) [Compound Z61, (2S)-N-((4^2Z,8^3S,2E,6S)-1^5-(Ra)-(5-(3-(1,1-dioxidothiomorpholino)prop-1-yn-1-yl)-2-((S)-1-methoxyethyl)pyridin-3-yl)-1^1-isopropyl-12,12-dimethyl-7,9-dioxo-8^1,8^2,8^3,8^4,8^5,8^6-hexahydro-1^1H-10-oxa-4(4,2)-thiazola-8(1,3)-pyridazina-1(3,4)-pyrazolocyclotridec-2-en-6-yl)-3-methyl-2-(methyl(p-tolyl)amino)butanamide]

The remaining lines, values behind:

SMILES	IC50 [nM]
CO[C@@H](C)c1ncc(C#CCN2CCS(=O)(=O)CC2)cc1-c1c2c(nn1C(C)C)/C=C/c1csc(n1)C[C@H](NC(=O)[C@H](C(C)C)N(C)c1cccc(C)c1)C(=O)N1CCC[C@H](N1)C(=O)OCC(C)(C)C2 (atropisomer, axis not shown; (Ra)) [Compound Z59, (2S)-N-((4^2Z,8^3S,2E,6S)-1^5-(Ra)-(5-(3-(1,1-dioxidothiomorpholino)prop-1-yn-1-y1)-2-((S)-1-methoxyethyl)pyridin-3-yl)-1^1-isopropyl-12,12-dimethyl-7,9-dioxo-8^1,8^2,8^3,8^4,8^5,8^6-hexahydro-1^1H-10-oxa-4(4,2)-thiazola-8(1,3)-pyridazina-1(3,4)-pyrazolocyclotridec-2-en-6-yl)-3-methyl-2-(methyl(m-tolyl)amino)butanamide]	49.2
COC[C@H]1CCN1C(=O)N[C@H]1Cc2nc(cs2)/C=C/c2nn(C(C)C)c(-c3cc(C#CCN4CCS(=O)(=O)CC4)cnc3[C@H](C)OC)c2CC(C)(C)COC(=O)[C@@H]2CCCN(N2)C1=O [Compound Z41, (2R)-N-((4^2Z,8^3S,2E,6S)-1^5-(5-(3-(1,1-dioxidothiomorpholino)prop-1-yn-1-yl)-2-((S)-1-methoxyethyl)pyridin-3-yl)-1^1-isopropyl-12,12-dimethyl-7,9-dioxo-8^1,8^2,8^3,8^4,8^5,,8^6-hexahydro-1^1H-10-oxa-4(4,2)-thiazola-8(1,3)-pyridazina-1(3,4)-pyrrolacyclotridecaphan-2-en-6-yl)-2-(methoxymethyl)azetidine-1-carboxamide]	356
CCn1nc2c(c1-c1cc(C#CCN3CCS(=O)(=O)CC3)cnc1[C@H](C)OC)CC(C)(C)COC(=O)[C@@H]1CCCN(N1)C(=O)[C@@H](NC(=O)[C@H](C(C)C)N(C)C1CCCC1)Cc1nc(cs1)/C=C/2 (atropisomer, axis not shown; (Ra)) [Compound Z58, (2S)-2-(cyclopentyl(methyl)amino)-N-((4^2Z,8^3S,2E,6S)-(Ra)-1^5-(5-(3-(1,1-dioxidothiomorpholine)prop-1-yn-1-yl)-2-((S)-1-methoxyethyl)pyridin-3-yl)-1^1-ethyl-12,12-dimethyl-7,9-dioxo-8^1,8^2,8^3,8^4,8^5,8^6-hexahydro-1^1H-10-oxa-4(4,2)-thiazola-8(1,3)-pyridazina-1(3,4)-pyrazolecyclotridec-2-en-6-yl)-3-methylbutanamide]	55.7
CO[C@@H](C)c1ncc(C#CCN2CCS(=O)(=O)CC2)cc1-c1c2c(nn1C(C)C)/C=C/c1csc(n1)C[C@H](NC(=O)[C@H](C(C)C)N(C)c1ccc3ccccc3c1)C(=O)N1CCC[C@H](N1)C(=O)OCC(C)(C)C2 (atropisomer, axis not shown; (Ra)) [Compound Z60]	261
